Test results: paper PMC2927429, “Novel Naphthalene-Based Inhibitors of Trypanosoma brucei RNA Editing Ligase 1” (PLoS Neglected Tropical Diseases, 2010)
Where two headings read alike, the source gives them in different places.

Molecular target: T1, RNA editing ligase 1 (TbREL1) (Trypanosoma brucei, UniProt P86926)
T1 construct: gene REL1; recombinant full-length TbREL1, C-terminal TAP tag, Sf9 cells
T1 sequence (P86926 1-469): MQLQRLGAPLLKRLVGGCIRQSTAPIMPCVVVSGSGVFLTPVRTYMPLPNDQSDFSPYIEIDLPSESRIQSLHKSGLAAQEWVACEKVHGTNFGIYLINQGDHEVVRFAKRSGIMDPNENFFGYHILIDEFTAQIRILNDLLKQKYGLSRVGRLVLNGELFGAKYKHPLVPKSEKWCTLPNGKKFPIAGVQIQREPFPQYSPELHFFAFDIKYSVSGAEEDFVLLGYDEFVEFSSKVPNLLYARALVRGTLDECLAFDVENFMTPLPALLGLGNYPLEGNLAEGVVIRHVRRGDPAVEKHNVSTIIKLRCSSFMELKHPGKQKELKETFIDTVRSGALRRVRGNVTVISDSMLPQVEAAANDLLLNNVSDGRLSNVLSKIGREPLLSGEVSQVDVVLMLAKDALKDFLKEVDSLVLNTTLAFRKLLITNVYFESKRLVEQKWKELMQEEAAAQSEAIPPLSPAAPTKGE
Assay: inhibition of TbREL1 adenylylation with [α-32P]ATP, SDS/PAGE and phosphorimaging, […] Triton X-100
Assay type: biochemical

SMILES	IC50 (read-out: IC50)	IC50
O=C(Nc1ccc2c(O)c(/N=N/c3ccc4c(O)cc(S(=O)(=O)O)cc4c3)c(S(=O)(=O)O)cc2c1)c1ccccc1 [V1, (E)-7-benzamido-4-hydroxy-3-((5-hydroxy-7-sulfonaphthalen-2-yl)diazenyl)naphthalene-2-sulfonic acid]	2160 ± 1200 nM	
Nc1ccc2c(O)c(/N=N/c3ccc4c(O)cc(S(=O)(=O)O)cc4c3)c(S(=O)(=O)O)cc2c1 [V2, (E)-7-amino-4-hydroxy-3-((5-hydroxy-7-sulfonaphthalen-2-yl)diazenyl)naphthalene-2-sulfonic acid]	1530 ± 1170 nM	
O=S(=O)(O)c1cc(O)c2ccc(Nc3ccc4c(O)cc(S(=O)(=O)O)cc4c3)cc2c1 [V3, Di-J acid]	8360 ± 1710 nM	
O=S(=O)(O)c1cc(/N=N/c2c(O)ccc3ccccc23)c(O)c(/N=N/c2c(O)ccc3cc(S(=O)(=O)O)ccc23)c1 [V4, Mordant Black 25]		1590 ± 1100 nM
